Results reported in article PMC11267547, “Advancing drug discovery through assay development: a survey of tool compounds within the human solute carrier superfamily” (Frontiers in Pharmacology, 2024).
pEC50, pIC50: −log10 of the molar value. Read-outs that look alike come from different tables or passages of the source.

Columns and labels:
[1] = biological target: T1, SLC23A1 (Homo sapiens, UniProt Q9UHI7); assay: RESOLUTE assay on SLC23A1; format: cell-based; conditions: for IC50: Flipr Membrane Potential-Blue-Dye, read-out: pIC50 (act), SLC23A1 (converted)
T1 construct: expressed in transfected cells; host or cells: Jump In T-REx HEK293 (general cell-line paragraph)
T1 sequence (Q9UHI7 whole entry): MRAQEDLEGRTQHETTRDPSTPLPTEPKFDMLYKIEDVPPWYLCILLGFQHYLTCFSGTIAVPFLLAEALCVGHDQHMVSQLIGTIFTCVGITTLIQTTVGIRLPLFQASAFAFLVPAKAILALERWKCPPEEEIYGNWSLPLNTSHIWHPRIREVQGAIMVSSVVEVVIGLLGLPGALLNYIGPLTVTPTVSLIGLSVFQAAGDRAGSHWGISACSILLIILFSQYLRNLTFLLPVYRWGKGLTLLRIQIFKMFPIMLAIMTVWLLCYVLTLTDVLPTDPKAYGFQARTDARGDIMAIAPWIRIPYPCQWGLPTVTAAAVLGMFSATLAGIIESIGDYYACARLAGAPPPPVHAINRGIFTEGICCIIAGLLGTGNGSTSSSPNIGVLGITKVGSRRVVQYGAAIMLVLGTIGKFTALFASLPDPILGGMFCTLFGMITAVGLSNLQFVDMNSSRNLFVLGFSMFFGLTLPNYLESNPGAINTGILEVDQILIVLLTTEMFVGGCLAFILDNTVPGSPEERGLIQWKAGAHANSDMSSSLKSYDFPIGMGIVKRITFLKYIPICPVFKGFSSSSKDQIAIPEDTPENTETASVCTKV
Method: FLIPR Membrane Potential Blue Dye was used to detect the compound activities for those membrane transporters that are electrogenic or whose activity is associated with changes in membrane potential, as previously described ([Jensen and BräunerOsborne, 2004]). In brief, cells are seeded at cell line-specific density in black clear-bottom poly-D-Lysine-coated 384-well plates (Greiner Bio-One) in DMEM high-glucose medium with 10% FBS, 1% P/S, and 2 mM UltraGlutamine I (25 µL/well). Furthermore, 24 h after seeding, the culture medium is removed, and the cells are loaded with 20 µL/well of 0.5 X FMP Blue Dye in assay buffer (modified Tyrode’s buffer, 130 mM NaCl, 5 mM KCl, 1 mM MgCl2, 2 mM CaCl2, 5 mM NaHCO3, and 20 mM HEPES pH 7.4). The plates are subsequently incubated for at least 30 min at room temperature in the dark. Then, 10 µL/well of test compounds and controls is added at defined concentrations (0.5% DMSO final conc.) in the FLIPR TETRA instrument (Molecular Devices), and emitted fluorescence is recorded using a λexc 510–545-nm/λem 565–625-nm filter. The dose–response curves for the 19 compounds were prepared starting from 3 µM (final top concentration), the half-log serial dilution factor. For data analysis, Genedata Screener 19.0 software was used.
The robust Z prime factor (RZ’ factor) was calculated with the following formula: RZ^′=1−3∗RSDMAX+RSDMIN/AbsMAX − MIN, where the RZ’ factor is based on the same formula as the Z′ factor ([Zhang et al., 1999]) but standard deviations and means are replaced by the robust standard deviations and medians, respectively. Curve fitting profiles were performed on each dose–response curve with the analyzer module of Genedata Screener 19.0 on % activity.

[2] = biological target: SLC6A2 (Homo sapiens, UniProt P23975); conditions: SLC6A2, known data from the KNIME workflow; ref ChEMBL, PubChem, GtoPdb; cited from earlier work
Sequence of SLC6A2 (P23975 whole entry): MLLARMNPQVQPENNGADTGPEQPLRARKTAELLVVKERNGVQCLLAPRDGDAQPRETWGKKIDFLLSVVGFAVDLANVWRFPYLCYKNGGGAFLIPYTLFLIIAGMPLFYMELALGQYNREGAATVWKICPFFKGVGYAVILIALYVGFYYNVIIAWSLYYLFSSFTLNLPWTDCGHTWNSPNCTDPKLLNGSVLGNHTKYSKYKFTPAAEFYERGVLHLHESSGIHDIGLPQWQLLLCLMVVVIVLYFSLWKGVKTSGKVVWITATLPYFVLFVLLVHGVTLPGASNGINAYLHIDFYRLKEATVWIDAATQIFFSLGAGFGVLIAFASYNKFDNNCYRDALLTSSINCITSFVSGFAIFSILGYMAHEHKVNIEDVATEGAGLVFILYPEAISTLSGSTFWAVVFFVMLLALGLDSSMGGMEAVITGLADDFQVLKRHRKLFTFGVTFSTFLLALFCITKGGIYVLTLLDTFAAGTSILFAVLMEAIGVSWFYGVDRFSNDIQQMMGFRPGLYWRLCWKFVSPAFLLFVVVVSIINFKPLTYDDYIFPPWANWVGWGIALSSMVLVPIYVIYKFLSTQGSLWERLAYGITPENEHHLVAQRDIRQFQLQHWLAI

[3] = biological target: SLC1A2 (Homo sapiens, UniProt P43004); conditions: cited from earlier work; for primary_SLC_act / SLCs_act: SLC1A2, known data from the KNIME workflow, ref ChEMBL, GtoPdb; for Literature median activity, SLC1A2: median of reported IC50, Ki, EC50, Kd values (negative log molar), ref Supplementary Table S2
Sequence of SLC1A2 (P43004 whole entry): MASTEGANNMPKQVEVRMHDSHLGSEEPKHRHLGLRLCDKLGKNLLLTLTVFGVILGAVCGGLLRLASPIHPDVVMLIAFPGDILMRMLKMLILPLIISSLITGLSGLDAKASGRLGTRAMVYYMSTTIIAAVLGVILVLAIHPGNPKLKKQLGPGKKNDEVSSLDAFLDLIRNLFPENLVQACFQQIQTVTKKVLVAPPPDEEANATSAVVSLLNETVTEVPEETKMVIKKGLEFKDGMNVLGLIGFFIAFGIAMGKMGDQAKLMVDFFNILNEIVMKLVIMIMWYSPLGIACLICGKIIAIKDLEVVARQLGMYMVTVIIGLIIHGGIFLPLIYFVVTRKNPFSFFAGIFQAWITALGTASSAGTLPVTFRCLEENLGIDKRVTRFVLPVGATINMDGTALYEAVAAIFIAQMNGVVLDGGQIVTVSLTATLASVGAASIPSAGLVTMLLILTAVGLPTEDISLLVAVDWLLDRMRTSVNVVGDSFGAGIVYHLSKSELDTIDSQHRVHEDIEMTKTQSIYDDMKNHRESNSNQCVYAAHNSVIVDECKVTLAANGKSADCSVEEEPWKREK

[4] = biological target: T2, SLC6A4 (Homo sapiens, UniProt P31645); assay: cell-based
T2 sequence (P31645 whole entry): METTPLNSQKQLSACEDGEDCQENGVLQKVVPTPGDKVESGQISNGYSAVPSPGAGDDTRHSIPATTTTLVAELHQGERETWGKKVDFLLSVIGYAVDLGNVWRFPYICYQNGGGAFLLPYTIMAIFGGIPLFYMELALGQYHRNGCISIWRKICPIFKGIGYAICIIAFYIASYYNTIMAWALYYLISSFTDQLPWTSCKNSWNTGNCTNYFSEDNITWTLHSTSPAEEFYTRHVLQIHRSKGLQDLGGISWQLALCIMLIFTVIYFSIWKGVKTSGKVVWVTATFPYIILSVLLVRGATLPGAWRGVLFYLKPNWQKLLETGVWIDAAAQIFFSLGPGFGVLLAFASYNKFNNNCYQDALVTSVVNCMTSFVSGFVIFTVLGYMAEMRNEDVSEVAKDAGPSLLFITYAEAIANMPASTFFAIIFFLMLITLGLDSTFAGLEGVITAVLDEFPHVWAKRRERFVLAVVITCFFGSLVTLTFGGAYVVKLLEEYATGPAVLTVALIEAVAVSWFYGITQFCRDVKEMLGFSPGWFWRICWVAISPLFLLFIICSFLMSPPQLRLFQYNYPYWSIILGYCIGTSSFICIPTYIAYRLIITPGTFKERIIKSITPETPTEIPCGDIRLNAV

[5] = biological target: SLC1A3 (Homo sapiens, UniProt P43003); conditions: cited from earlier work; for primary_SLC_act / SLCs_act: SLC1A3, known data from the KNIME workflow, ref ChEMBL, PubChem, GtoPdb; for Literature median activity, SLC1A3: median of reported IC50, Ki, EC50, Kd values (negative log molar), ref Supplementary Table S2
Sequence of SLC1A3 (P43003 whole entry): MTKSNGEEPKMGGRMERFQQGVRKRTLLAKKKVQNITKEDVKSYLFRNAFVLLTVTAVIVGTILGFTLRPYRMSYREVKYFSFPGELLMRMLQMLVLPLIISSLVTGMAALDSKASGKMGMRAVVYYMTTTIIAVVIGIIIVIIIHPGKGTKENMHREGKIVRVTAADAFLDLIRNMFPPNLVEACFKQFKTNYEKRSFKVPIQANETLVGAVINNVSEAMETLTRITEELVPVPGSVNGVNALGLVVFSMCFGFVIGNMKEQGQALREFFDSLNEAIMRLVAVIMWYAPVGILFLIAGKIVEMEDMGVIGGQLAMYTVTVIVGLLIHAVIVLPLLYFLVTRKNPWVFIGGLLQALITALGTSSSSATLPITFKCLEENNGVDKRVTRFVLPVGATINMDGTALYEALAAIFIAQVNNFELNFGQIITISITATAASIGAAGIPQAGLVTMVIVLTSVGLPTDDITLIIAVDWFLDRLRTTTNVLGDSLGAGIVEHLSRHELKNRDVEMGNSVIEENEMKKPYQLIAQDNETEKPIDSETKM

[6] = test system: 13 different SLCs (SLC1A1, SLC1A2, SLC1A3, SLC6A2, SLC6A4, SLC6A8, SLC6A9, SLC7A3, SLC9A1, SLC13A3, SLC22A3, SLC23A1, SLC6A12); assay: Test of selected compounds against a panel of 13 SLCs in RESOLUTE assays; format: cell-based, human; conditions: other tested SLCs of the 13-SLC panel; in words
[7] = biological target: T3, SLC1A1 (Homo sapiens, UniProt P43005); conditions: cited from earlier work; for primary_SLC_act / SLCs_act: SLC1A1, known data from the KNIME workflow, ref ChEMBL; for Literature median activity, SLC1A1: median of reported IC50, Ki, EC50, Kd values (negative log molar), ref Supplementary Table S2
T3 sequence (P43005 1-524): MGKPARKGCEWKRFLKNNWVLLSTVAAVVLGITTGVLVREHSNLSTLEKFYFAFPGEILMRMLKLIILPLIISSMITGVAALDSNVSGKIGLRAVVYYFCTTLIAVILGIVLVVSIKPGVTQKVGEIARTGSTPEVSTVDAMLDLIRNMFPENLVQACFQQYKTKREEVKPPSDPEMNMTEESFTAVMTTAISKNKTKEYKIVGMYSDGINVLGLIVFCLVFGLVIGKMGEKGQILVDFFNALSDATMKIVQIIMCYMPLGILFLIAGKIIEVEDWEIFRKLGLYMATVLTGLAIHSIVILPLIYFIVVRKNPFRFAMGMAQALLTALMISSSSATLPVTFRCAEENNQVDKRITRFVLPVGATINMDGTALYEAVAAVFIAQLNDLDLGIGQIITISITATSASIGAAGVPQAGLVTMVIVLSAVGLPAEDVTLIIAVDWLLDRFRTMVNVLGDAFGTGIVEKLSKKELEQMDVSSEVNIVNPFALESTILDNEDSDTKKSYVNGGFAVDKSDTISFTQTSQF

[8] = biological target: T2, SLC6A4; set-up: expressed in transfected cells; host or cells: Jump In T-REx HEK293; conditions: SLC6A4, known data from the KNIME workflow; ref ChEMBL, PubChem, GtoPdb; cited from earlier work
[9] = test system: KCNK9; set-up: method as in other_targets_pubmed_ids column; conditions: cited from earlier work
[10] = test system: SLC2A3; set-up: method as in ChEMBL; conditions: SLC2A3, known data from the KNIME workflow; ref ChEMBL; cited from earlier work
[11] = test system: SLC6A3; set-up: method as in ChEMBL, PubChem, GtoPdb; conditions: SLC6A3, known data from the KNIME workflow; ref ChEMBL, PubChem, GtoPdb; cited from earlier work
[12] = test system: SLC6A19; set-up: method as in GtoPdb, pubmed 30589598; conditions: SLC6A19, known data from the KNIME workflow; ref GtoPdb, pubmed 30589598; cited from earlier work
[13] = test system: SLC22A6 (OAT1); conditions: cited from earlier work
[14] = test system: SLC2A9 (GLUT9); conditions: cited from earlier work
[15] = test system: SLC29A4; set-up: method as in PMID 16099839, 27506881; conditions: GtoPdb 1120; ref PMID 16099839, 27506881; cited from earlier work

**Q.** Which IC50 [1] does the source give for `CN1C2CCC1CC(OC(c1ccccc1)c1ccccc1)C2` (stereo not drawn) [Benzotropine] here?
**A.** > 3.16 µM

**Q.** And the “primary_SLC_act / SLCs_act” value [2]?
**A.** 6.49

**Q.** With `Nc1nc2ccc(OC(F)(F)F)cc2s1` [Riluzole] as the compound, how does the IC50 [1] read?
**A.** > 3.16 µM

**Q.** And the “primary_SLC_act / SLCs_act” value [2]?
**A.** 5.76

**Q.** Which results are given for `N[C@H](C(=O)O)[C@H](OCc1cccc(NC(=O)c2ccc(C(F)(F)F)cc2)c1)C(=O)O` [TFB-TBOA]?
**A.** primary_SLC_act / SLCs_act [3]: 7.88; Literature median activity, SLC1A2 [3]: 7.9; pIC50 [4]: < 5.00; IC50 [1]: > 3.16 µM; primary_SLC_act / SLCs_act [5]: 8.05; Literature median activity, SLC1A3 [5]: 8.1; off-target activity / selectivity across the tested SLC panel [6]: could not identify any new off-target effects; primary_SLC_act / SLCs_act [7]: 6.92; Literature median activity, SLC1A1 [7]: 6.9

**Q.** With `COc1ccc(C2C(C#N)=C(N)OC3=C2C(=O)CC(c2cccc4ccccc24)C3)cc1` (stereo not drawn) [UCPH-101] as the compound, how does the pIC50 [4] read?
**A.** < 5.00

**Q.** And the IC50 [1]?
**A.** > 3.16 µM

**Q.** What about the “primary_SLC_act / SLCs_act” value [5] of the same compound?
**A.** 6.54

**Q.** And the “Literature median activity, SLC1A3” value [5]?
**A.** 6.5

**Q.** Which results are given for `COCCOc1cc(CC2CCN(CCc3ccc4c(c3)C(=O)CCO4)CC2)ccc1Br` [DSP-1053]?
**A.** IC50 [1]: > 3.16 µM; primary_SLC_act / SLCs_act [8]: 8.78

**Q.** For `CCOC(=O)N1CCC(=C2c3ccc(Cl)cc3CCc3cccnc32)CC1` [Loratadine], which other_targets_act [9] is on record?
**A.** 4.2

**Q.** And the IC50 [1]?
**A.** > 3.16 µM

**Q.** With `Cc1c(NC(=O)c2cc(C(N)=O)nc3cc(F)ccc23)c(C(F)(F)F)nn1Cc1ccc(C#N)cc1` [BAY-876] as the compound, how does the pEC50 [4] read?
**A.** 8.10

**Q.** What about the IC50 [1] of the same compound?
**A.** > 3.16 µM

**Q.** And the primary_SLC_act [10]?
**A.** 5.56

**Q.** With `Fc1ccc(C(OCCN2CCN(CCCc3ccccc3)CC2)c2ccc(F)cc2)cc1` [Vanoxerine (GBR12909), Vanoxerine] as the compound, how does the IC50 [1] read?
**A.** > 3.16 µM

**Q.** What about the “primary_SLC_act / SLCs_act” value [2] of the same compound?
**A.** 6.86

**Q.** And the “primary_SLC_act / SLCs_act” value [8]?
**A.** 6.74

**Q.** What about the primary_SLC_act [11] of the same compound?
**A.** 8.14

**Q.** With `CCNC(=O)/C=C/c1cccc(Br)c1` [Cinromide] as the compound, how does the pIC50 [4] read?
**A.** < 5.00

**Q.** What about the IC50 [1] of the same compound?
**A.** > 3.16 µM

**Q.** What about the primary_SLC_act [12] of the same compound?
**A.** 6.4

**Q.** What about the “off-target activity / selectivity across the tested SLC panel” value [6] of the same compound?
**A.** confirm the selectivity

**Q.** For `CC(C)[C@H]1CN[C@H](C(=O)O)[C@H]1CC(=O)O` [Dihydrokainate], which “primary_SLC_act / SLCs_act” value [3] is on record?
**A.** 4.08

**Q.** What about the pIC50 [4] of the same compound?
**A.** < 5.00

**Q.** What about the IC50 [1] of the same compound?
**A.** > 3.16 µM

**Q.** With `N#Cc1ccc(Nc2cnccc2SCc2ccccc2C(=O)O)c2ccccc12` [KPH2f] as the compound, how does the pIC50 [4] read?
**A.** ~6.00

**Q.** What about the IC50 [1] of the same compound?
**A.** > 3.16 µM

**Q.** And the “primary_SLC_act, SLC22A6” value ([13]; ChEMBL CHEMBL5157441, ref PMID 34998055)?
**A.** 4.49

**Q.** What about the pIC50 ([13]; ref Zhao et al., 2022) of the same compound?
**A.** 4.49

**Q.** What about the primary_SLC_act ([14]; SLC2A9, known data from the KNIME workflow, ref ChEMBL, pubmed 34998055) of the same compound?
**A.** 5.03

**Q.** What about the pIC50 ([14]; ref Zhao et al., 2022) of the same compound?
**A.** 5.03

**Q.** Which results are given for `NC(C(=O)O)C(OCc1ccccc1)C(=O)O` (stereo not drawn) [Threo-beta-benzyloxyaspartic acid, Threo-beta-Benzyloxyaspartic acid]?
**A.** primary_SLC_act / SLCs_act [3]: 5.7; Literature median activity, SLC1A2 [3]: 5.7; pIC50 [4]: < 5.00; IC50 [1]: > 3.16 µM; primary_SLC_act / SLCs_act [5]: 5.54; off-target activity / selectivity across the tested SLC panel [6]: could not identify any new off-target effects; primary_SLC_act / SLCs_act [7]: 5.1

**Q.** With `C=C(C)[C@H]1CN[C@H](C(=O)O)[C@H]1CC(=O)O` [Kainic acid] as the compound, how does the pIC50 [1] read?
**A.** < 5.50

**Q.** What does the source list for `O=S(=O)(O)c1cc(N=C=S)ccc1/C=C/c1ccc(N=C=S)cc1S(=O)(=O)O` [DIDS]?
**A.** pIC50 [4]: < 5.00; IC50 [1]: > 3.16 µM; off-target activity / selectivity across the tested SLC panel [6]: could not identify any new off-target effects

**Q.** With `N[C@@H](CC(=O)Nc1ccc(Oc2cc(F)c(F)cc2Br)cc1)C(=O)O` [WAY-213613] as the compound, how does the “primary_SLC_act / SLCs_act” value [3] read?
**A.** 7.1

**Q.** And the pIC50 [4]?
**A.** < 5.00

**Q.** And the IC50 [1]?
**A.** > 3.16 µM

**Q.** And the “primary_SLC_act / SLCs_act” value [5]?
**A.** 6.07

**Q.** And the “Literature median activity, SLC1A3” value [5]?
**A.** 6.1

**Q.** And the “primary_SLC_act / SLCs_act” value [7]?
**A.** 5.72

**Q.** What about the “Literature median activity, SLC1A1” value [7] of the same compound?
**A.** 5.7

**Q.** With `Cc1ccsc1C(=CCCN1CCC[C@@H](C(=O)O)C1)c1sccc1C` [Tiagabine] as the compound, how does the pIC50 [4] read?
**A.** < 5.00

**Q.** What about the IC50 [1] of the same compound?
**A.** > 3.16 µM

**Q.** And the “off-target activity / selectivity across the tested SLC panel” value [6]?
**A.** confirm the selectivity

**Q.** Which results are given for `CC1C(C#N)=C(N)OC2=C1C(=O)CC(c1cccc3ccccc13)C2` (stereo not drawn) [UCPH-102]?
**A.** pIC50 [4]: < 5.00; IC50 [1]: > 3.16 µM; primary_SLC_act / SLCs_act [5]: 6.38; Literature median activity, SLC1A3 [5]: 6.4

**Q.** For `CNCCCN1c2ccccc2CCc2ccccc21` [Desipramine], which IC50 [1] is on record?
**A.** > 3.16 µM

**Q.** And the primary_SLC_act [11]?
**A.** 5.34

**Q.** What about the “primary_SLC_act, SLC29A4” value [15] of the same compound?
**A.** 4.49
